Measurements published in the supplement of paper PMC10307832.

Columns and labels:
Experiment in all cases: relative viability (nuclei count vs DMSO), 5 days (fraction); higher = more cells survive
TGX 221 = compound: CC1=CN2C(=O)C=C(N=C2C(=C1)C(C)NC3=CC=CC=C3)N4CCOCC4 [TGX 221]
In short: (§1)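 Five library-drug doses, separated by factors of √10, were pinned into 1536-well plates holding lung cancer cell lines after an overnight stay at 37 °C. Cells were fixed, permeabilised and Hoechst-stained in one step after 5 days without medium change, then imaged at 4×. Viability compares treated-well with vehicle-well nuclei, counted in MetaXpress, as a median across plates. Passing plates had control CV below 25% and at least one doubling.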

Ricolinostat = compound: O=C(CCCCCCNC(=O)c1cnc(N(c2ccccc2)c2ccccc2)nc1)NO [Ricolinostat]
In short: as §1

[1] = compound: C1=CC=C(C(=C1)C2=CC=C(C=C2)C3=CSC4=C3C(=C(C(=O)N4)C#N)O)O
In short: as §1

[2] = compound: C1=CC=C(C(=C1)C2=CC=C(C=C2)C3=CSC4=C3C(=C(C(=O)N4)C#N)O)O + Cc1nc(NC(=O)N2CCC[C@H]2C(N)=O)sc1-c1ccnc(C(C)(C)C(F)(F)F)c1 [Alpelisib] (partner 2 µM)
In short: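 Relative viability is defined as nuclei in treated wells over nuclei in vehicle wells. Duplicate plates were run and medians reported. Lung cancer cell lines in 1536-well plates were dosed by pin tool one day after seeding, with one drug or with a fixed anchor-drug dose plus five library-drug doses (not always all listed) in √10 steps, and nuclei were counted after 5 days.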

| Cell Line | relative viability (TGX 221; 0.08 µM) | relative viability (TGX 221; 0.253 µM) | relative viability (TGX 221; 0.8 µM) | relative viability (TGX 221; 2.53 µM) | relative viability (TGX 221; 8 µM) | relative viability (Ricolinostat; 0.08 µM) | relative viability (Ricolinostat; 0.253 µM) | relative viability (Ricolinostat; 0.8 µM) | relative viability (Ricolinostat; 2.53 µM) | relative viability ([1]; 0.08 µM) | relative viability ([1]; 0.253 µM) | relative viability ([1]; 0.8 µM) | relative viability ([1]; 2.53 µM) | relative viability ([1]; 8 µM) | relative viability ([2]; first compound 0.08 µM) | relative viability ([2]; first compound 0.253 µM) | relative viability ([2]; first compound 0.8 µM) | relative viability ([2]; first compound 2.53 µM) | relative viability ([2]; first compound 8 µM) |
| --- | --- | --- | --- | --- | --- | --- | --- | --- | --- | --- | --- | --- | --- | --- | --- | --- | --- | --- | --- |
| HCC-44 | 0.991 | 1.03 | 1.03 | 0.99 | 1.03 | 1.01 | 0.966 | 0.962 | 0.77 | 1.03 | 1 | 0.997 | 0.956 | 0.991 | 0.661 | 0.796 | 0.767 | 0.86 | 0.663 |
| HCC-78 | 0.769 | 0.856 | 0.785 | 0.722 | 0.76 |  | 1.03 | 0.8 | 0.637 | 0.85 | 1.23 | 1.15 | 0.966 | 0.832 | 0.286 | 0.485 | 0.296 | 0.29 | 0.349 |
| HCC-366 | 0.942 | 0.999 | 1.03 | 0.957 | 1.01 | 0.984 | 1.03 | 1.03 | 0.769 | 0.829 | 1.08 | 1.07 | 1.01 | 0.638 | 0.506 | 0.491 | 0.431 | 0.441 | 0.367 |
| HCC-827 | 0.982 | 1.03 | 1.07 | 1.04 | 0.983 | 0.946 | 1.02 | 1.01 | 0.991 | 1.03 | 1.05 | 1.08 | 1.07 | 1.11 | 1.09 | 1.01 | 0.993 | 1.06 | 1.06 |
| HOP-62 | 0.965 | 1.06 | 1.04 | 1.09 | 1.09 | 0.932 | 0.987 | 1.03 | 0.913 | 1.08 | 1.12 | 1 | 1.08 | 0.82 | 0.905 | 0.774 | 0.709 | 1.05 | 0.573 |
| IA-LM | 0.883 | 0.96 | 1.07 | 0.981 | 0.966 | 0.657 | 0.924 | 0.797 | 0.777 | 0.725 | 1.45 | 1.04 | 1.15 | 0.655 | 0.549 | 0.879 | 0.626 | 0.75 | 0.374 |
| LC-2-ad | 0.962 | 1.01 | 1.01 | 1.02 | 0.92 | 0.866 | 0.964 | 0.946 | 0.683 | 0.824 | 1.05 | 0.898 | 1.04 | 0.906 | 0.803 | 0.943 | 1 | 1 | 0.965 |
| LCLC-97TM1 | 0.97 | 0.76 | 1.02 | 0.863 | 0.924 | 0.809 | 1.06 | 0.997 | 0.855 | 0.895 | 1.34 | 1.02 | 1.08 | 1.03 | 0.251 | 0.346 | 0.265 | 0.225 | 0.173 |
| LCLC-103H | 0.903 | 0.983 | 0.878 | 0.928 | 0.959 | 0.778 | 0.957 | 1.04 | 1.08 | 1.02 | 0.984 | 1.05 | 0.984 | 1 | 0.948 | 0.881 | 1.05 | 0.981 | 0.869 |
| LK-2 | 0.986 | 0.878 | 0.914 | 0.996 | 1.1 | 0.967 | 0.999 | 1 | 0.899 | 0.724 | 0.922 | 1.11 | 0.918 | 0.71 |  |  | 0.906 | 1 | 1.06 |
| LOU-NH91 | 0.914 | 1 | 0.948 | 0.948 | 0.901 |  | 1.03 | 0.94 | 0.98 | 0.941 | 1.06 | 0.962 | 0.896 | 0.894 | 0.678 | 0.789 | 0.721 | 0.663 | 0.67 |
| LU99A | 0.859 | 0.857 | 0.896 | 0.89 | 0.981 | 0.877 | 0.926 | 0.865 | 0.641 | 0.984 | 0.905 | 0.95 | 0.89 | 0.911 | 0.613 | 0.5 | 0.538 | 0.507 | 0.527 |
| LXF-289 | 1.03 | 0.98 | 1.03 | 0.984 | 1.04 | 0.994 | 0.972 | 1 | 0.968 | 0.936 | 1.02 | 1 | 1.06 | 0.969 | 1.02 | 0.969 | 1.06 | 1.05 | 0.965 |
| NCI-H522 | 0.909 | 0.795 | 1.17 | 0.927 | 1.01 | 0.997 | 0.996 | 0.928 | 0.915 | 0.889 | 0.962 | 1.13 | 0.966 | 0.966 |  |  |  |  |  |
| NCI-H1623 | 1.04 | 0.863 | 0.949 | 0.82 | 0.991 | 0.933 | 0.972 | 1.12 | 0.889 | 1.04 | 1.1 | 0.927 | 1.04 | 0.774 |  |  |  |  |  |
| NCI-H1648 | 0.736 | 0.656 | 0.974 | 0.686 | 0.873 | 0.719 | 1.04 | 0.745 | 0.792 | 0.644 | 0.68 | 0.755 | 0.794 | 0.739 |  |  |  |  |  |
| NCI-H1650 | 0.979 | 0.816 | 0.862 | 0.859 | 0.705 | 0.774 | 0.884 | 0.789 | 0.678 | 0.727 | 1.29 | 0.913 | 0.93 | 0.612 |  |  |  |  |  |
| NCI-H2342 | 0.912 | 0.997 | 0.947 | 1.01 | 0.945 | 0.768 | 0.912 | 0.916 | 1.05 | 0.971 | 1.15 | 0.926 | 0.953 | 0.795 |  |  |  |  |  |
| SW 900 | 0.839 | 0.938 | 0.742 | 0.608 | 0.601 | 0.591 | 0.832 | 0.647 | 0.74 | 0.81 | 1.22 | 0.809 | 0.773 | 0.56 |  |  |  |  |  |
